{"source": "ChEMBL document CHEMBL5346962", "about": "“Discovery of Sulanemadlin (ALRN-6924), the First Cell-Permeating, Stabilized α-Helical Peptide in Clinical Development” (J Med Chem, 2023)", "tested_on": "SJSA-1", "test": "Cytotoxicity against human SJSA-1 cells incubated for 72 hrs in presence of 10% FBS by MTT assay", "conditions": "SJSA-1, 72 h", "note": "pEC50: −log10 of the molar value. Bridge positions count the residues as written; N and C are the ends. Square brackets hold non-standard residues; d marks the D form. Peptide text beside a SMILES is read from it. R8 = C=CCCCCCC[C@@](C)(N)C(=O)O; S5 = C=CCCC[C@](C)(N)C(=O)O"}
{"smiles": "CC(=O)N[C@@H](CC(C)C)C(=O)N[C@H](C(=O)N[C@@H](Cc1ccccc1)C(=O)N[C@]1(C)CCCCCC/C=C\\CCC[C@@](C)(C(=O)N[C@@H](C)C(=O)N[C@@H](C)C(=O)N[C@@H](C)C(=O)O)NC(=O)[C@H](CC(C)C)NC(=O)[C@H](CCC(N)=O)NC(=O)[C@H](C)NC(=O)[C@H](Cc2c[nH]c3ccccc23)NC(=O)[C@H](Cc2ccc(O)cc2)NC(=O)[C@H](CCC(=O)O)NC1=O)[C@@H](C)O", "note": "(Ac-LTF[R8]EYWAQL[S5]AAA-OH; staple (Z) 4-11)", "values": [{"measurement": "pEC50", "value": 5.60}]}
